Measurements published in ChEMBL document CHEMBL6134844, “Development of Next-Generation Antimalarial Acridones with Radical Cure Potential” (J Med Chem, 2025).
Activity calls are given as the source filed them. The rule behind the calls is not given here.

Experiments:
Plasmodium cynomolgi [1] = assay: Antiplasmodial activity against hypnozoite Plasmodium cynomolgi B strain infected in Macaca mulatta hepatocytes incubated with sporozoite containing salivary gland homogenate obtained from dissected Anopheles dirus mosquitoes (infected with Plasmodium cynomolgi B strain) treatment started on day 4 post infection and continued daily for 4 days into fresh changed media until day 8 assessed as Liver stage (LS) activity by measuring prophylactic mode by immunofluorescent staining analysis; format: functional, organism-based; conditions: Hepatocyte
[2] = Toxicity in CF1 mouse infected with asexual blood-stage (ABS) Plasmodium yoelii MRA-428 assessed as behavioural change at 0.3 to 30 mg/kg, po treated 24 hrs post infection measured after 4 days; format: organism-based; conditions: in vivo, dose 0.3-30 mg/kg
[3] = Selectivity index, ratio of CC50 for Macaca mulatta hepatocytes to IC50 for antiplasmodial activity against hypnozoite Plasmodium cynomolgi B strain infected in Macaca mulatta hepatocytes incubated with sporozoite containing salivary gland homogenate obtained from dissected Anopheles dirus mosquitoes (infected with Plasmodium cynomolgi B strain) treatment started on day 4 post infection and continued daily for 4 days into fresh changed media until day 8 assessed as Liver stage (LS) activity by measuring radical cure mode by immunofluorescent staining analysis; format: toxicity, cell-based; conditions: rhesus monkey, read-out: Selectivity Index
[4] = Selectivity index, ratio of CC50 for Macaca mulatta hepatocytes to IC50 for antiplasmodial activity against schizont Plasmodium cynomolgi B strain infected in Macaca mulatta hepatocytes incubated with sporozoite containing salivary gland homogenate obtained from dissected Anopheles dirus mosquitoes (infected with Plasmodium cynomolgi B strain) treatment started on day 4 post infection and continued daily for 4 days into fresh changed media until day 8 assessed as Liver stage (LS) activity by measuring prophylactic mode by immunofluorescent staining analysis; format: toxicity, cell-based; conditions: rhesus monkey, read-out: Selectivity Index
Hepatocyte = assay: (§1) Cytotoxicity against Macaca mulatta hepatocytes assessed as cell viability measured after 48 hrs by MTT assay; format: toxicity, cell-based; conditions: rhesus monkey, 48 h
Plasmodium falciparum [5] = assay: Antiplasmodial activity against asexual blood-stage (ABS) MDR Plasmodium falciparum Dd2 infected in human erythrocytes assessed as reduction in fluorescence measured after 72 hrs by Malaria SYBR Green I-based Fluorescence (MSF) assay; format: functional, organism-based; conditions: Dd2, Erythrocyte
Plasmodium cynomolgi [6] = assay: Antiplasmodial activity against schizont Plasmodium cynomolgi B strain infected in Macaca mulatta hepatocytes incubated with sporozoite containing salivary gland homogenate obtained from dissected Anopheles dirus mosquitoes (infected with Plasmodium cynomolgi B strain) treatment started on day 4 post infection and continued daily for 4 days into fresh changed media until day 8 assessed as Liver stage (LS) activity by measuring radical cure mode by immunofluorescent staining analysis; format: functional, organism-based; conditions: Hepatocyte
Plasmodium yoelii [7] = assay: In vivo antiplasmodial activity against asexual blood-stage (ABS) Plasmodium yoelii MRA-428 infected in 4-day suppression CF1 mouse model assessed as reduction in parasitemia by measuring cured mouse at 100 mg/kg, po treated 24 hrs post infection daily for 4 days; format: functional, organism-based
HepG2 = assay: Cytotoxicity against human HepG2 cells assessed as cell viability measured after 48 hrs by MTT assay; format: functional, cell-based; conditions: HepG2, 48 h
Plasmodium cynomolgi [8] = assay: Antiplasmodial activity against hypnozoite Plasmodium cynomolgi B strain infected in Macaca mulatta hepatocytes incubated with sporozoite containing salivary gland homogenate obtained from dissected Anopheles dirus mosquitoes (infected with Plasmodium cynomolgi B strain) treatment started on day 4 post infection and continued daily for 4 days into fresh changed media until day 8 assessed as Liver stage (LS) activity by measuring radical cure mode by immunofluorescent staining analysis; format: functional, organism-based; conditions: Hepatocyte
Plasmodium cynomolgi [9] = assay: Antiplasmodial activity against schizont Plasmodium cynomolgi B strain infected in Macaca mulatta hepatocytes incubated with sporozoite containing salivary gland homogenate obtained from dissected Anopheles dirus mosquitoes (infected with Plasmodium cynomolgi B strain) treatment started on day 4 post infection and continued daily for 4 days into fresh changed media until day 8 assessed as Liver stage (LS) activity by measuring prophylactic mode by immunofluorescent staining analysis; format: functional, organism-based; conditions: Hepatocyte
Plasmodium falciparum [10] = assay: Antiplasmodial activity against asexual blood-stage (ABS) CQ-sensitive Plasmodium falciparum D6 infected in human erythrocytes assessed as reduction in fluorescence measured after 72 hrs by Malaria SYBR Green I-based Fluorescence (MSF) assay; format: functional, organism-based; conditions: D6, Erythrocyte
[11] = Selectivity index, ratio of CC50 for Macaca mulatta hepatocytes to IC50 for antiplasmodial activity against schizont Plasmodium cynomolgi B strain infected in Macaca mulatta hepatocytes incubated with sporozoite containing salivary gland homogenate obtained from dissected Anopheles dirus mosquitoes (infected with Plasmodium cynomolgi B strain) treatment started on day 4 post infection and continued daily for 4 days into fresh changed media until day 8 assessed as Liver stage (LS) activity by measuring radical cure mode by immunofluorescent staining analysis; format: toxicity, cell-based; conditions: rhesus monkey, read-out: Selectivity Index
[12] = Selectivity index, ratio of CC50 for Macaca mulatta hepatocytes to IC50 for antiplasmodial activity against hypnozoite Plasmodium cynomolgi B strain infected in Macaca mulatta hepatocytes incubated with sporozoite containing salivary gland homogenate obtained from dissected Anopheles dirus mosquitoes (infected with Plasmodium cynomolgi B strain) treatment started on day 4 post infection and continued daily for 4 days into fresh changed media until day 8 assessed as Liver stage (LS) activity by measuring prophylactic mode by immunofluorescent staining analysis; format: toxicity, cell-based; conditions: rhesus monkey, read-out: Selectivity Index
Plasmodium falciparum [13] = assay: Antiplasmodial activity against asexual blood-stage (ABS) ATV-resistant clinical isolate Plasmodium falciparum Tm90-C2B infected in human erythrocytes assessed as reduction in fluorescence measured after 72 hrs by Malaria SYBR Green I-based Fluorescence (MSF) assay; format: functional, organism-based; conditions: Erythrocyte
[14] = mouse, microsomes, 1 h
Plasmodium yoelii [15] = assay: In vivo antiplasmodial activity against asexual blood-stage (ABS) Plasmodium yoelii MRA-428 infected in 4-day suppression CF1 mouse model assessed as reduction in parasitemia by measuring protection at 30 mg/kg, po treated 24 hrs post infection daily measured up to 28 days; format: functional, organism-based; conditions: time <= 28.0 day
[16] = human, microsomes, 1 h
[17] = Toxicity in CF1 mouse infected with asexual blood-stage (ABS) Plasmodium yoelii MRA-428 assessed as clinical toxicity at 0.3 to 30 mg/kg, po treated 24 hrs post infection measured after 4 days; format: organism-based; conditions: in vivo, dose 0.3-30 mg/kg
Plasmodium yoelii [18] = assay: In vivo antiplasmodial activity against asexual blood-stage (ABS) Plasmodium yoelii MRA-428 infected in 4-day suppression CF1 mouse model assessed as reduction in parasitemia treated 24 hrs post infection daily measured on day 4; format: functional
Plasmodium yoelii [19] = assay: In vivo antiplasmodial activity against asexual blood-stage (ABS) Plasmodium yoelii MRA-428 infected in 4-day suppression CF1 mouse model assessed as reduction in parasitemia by measuring cured mouse at 100 mg/kg, po single dose treated 24 hrs post infection; format: functional, organism-based
Plasmodium yoelii [20] = assay: In vivo antiplasmodial activity against asexual blood-stage (ABS) Plasmodium yoelii MRA-428 infected in 4-day suppression CF1 mouse model assessed as reduction in parasitemia by measuring protection at 10 mg/kg, po treated 24 hrs post infection daily for 4 days relative to control; format: functional; parameters: scale not given: the % may be the effect or the level left
Plasmodium yoelii [21] = assay: In vivo antiplasmodial activity against asexual blood-stage (ABS) Plasmodium yoelii MRA-428 infected in 4-day suppression CF1 mouse model assessed as reduction in parasitemia by measuring cured mouse at 60 mg/kg, po single dose treated 24 hrs post infection; format: functional, organism-based
Plasmodium yoelii [22] = assay: In vivo antiplasmodial activity against asexual blood-stage (ABS) Plasmodium yoelii MRA-428 infected in 4-day suppression CF1 mouse model assessed as reduction in parasitemia by measuring cured mouse at 80 mg/kg, po treated 24 hrs post infection daily for 4 days; format: functional, organism-based
Plasmodium berghei = assay: In vivo antiplasmodial activity against luciferase expressing liver stage Plasmodium berghei ANKA MRA-868 sporozoites infected in Albino C57BL/6 mouse model assessed as blood stage infection at 40 mg/kg, po daily measured 72 hrs; format: functional, organism-based
[23] = as §1; format: toxicity, cell-based, Hepatocyte; conditions: rhesus monkey
in vitro = conditions: human, liver microsomes

## O=c1c2ccc(OCc3cccc(OC(F)(F)F)c3)cc2[nH]c2cc(Cl)cc(F)c12
Plasmodium cynomolgi [1]
  IC50: 250 nM
[2]
  Activity: Non-toxic
[3]
  selectivity ratio at 96 h: 4.66
[4]
  selectivity ratio at 96 h: 165
Hepatocyte
  CC50: 3310 nM
Plasmodium falciparum [5]
  IC50: 0.01 nM
Plasmodium cynomolgi [6]
  IC50: 620 nM
Plasmodium yoelii [7]
  Activity: Active
HepG2
  IC50: > 200000 nM
Plasmodium cynomolgi [8]
  IC50: 710 nM
Plasmodium cynomolgi [9]
  IC50: 20 nM
Plasmodium falciparum [10]
  IC50: 0.077 nM
[11]
  selectivity ratio at 96 h: 5.34
[12]
  selectivity ratio at 96 h: 12.6
Plasmodium falciparum [13]
  IC50: 0.977 nM
[14]
  CLH: 57.4 µL/min/mg
Plasmodium yoelii [15]
  Activity: Active; Out Of 4 - 3 Mouse Cured
[16]
  t1/2: > 1 h
[17]
  Activity: Non-toxic

## O=c1c2ccc(Oc3ccc(OC(F)(F)F)cc3)cc2[nH]c2ccc(F)c(Cl)c12
Plasmodium cynomolgi [1]
  IC50: 530 nM
[2]
  Activity: Non-toxic
[3]
  selectivity ratio at 96 h: 1.31
[4]
  selectivity ratio at 96 h: 111
Hepatocyte
  CC50: 8870 nM
Plasmodium falciparum [5]
  IC50: 0.84 nM
Plasmodium yoelii [18]
  ED50: 0.29 mg/kg
  ED90: 0.33 mg/kg
Plasmodium cynomolgi [6]
  IC50: 3450 nM
HepG2
  IC50: > 200000 nM
Plasmodium cynomolgi [8]
  IC50: 6750 nM
Plasmodium cynomolgi [9]
  IC50: 80 nM
Plasmodium yoelii [19]
  Activity: Active
Plasmodium falciparum [10]
  IC50: 1.03 nM
[11]
  selectivity ratio at 96 h: 2.57
Plasmodium yoelii [20]
  Activity: 100%
[12]
  selectivity ratio at 96 h: 16.7
Plasmodium falciparum [13]
  IC50: 52.8 nM
[14]
  CLH: 11.6 µL/min/mg
Plasmodium yoelii [21]
  Activity: Active
[16]
  t1/2: > 1 h
[17]
  Activity: Non-toxic

## O=c1c2cc(Oc3ccc(OC(F)(F)F)cc3)ccc2[nH]c2cc(Cl)cc(F)c12
Plasmodium cynomolgi [1]
  IC50: 330 nM
[2]
  Activity: Non-toxic
[4]
  selectivity ratio at 96 h: > 667
Plasmodium yoelii [22]
  Activity: Active
Hepatocyte
  CC50: > 20000 nM
Plasmodium falciparum [5]
  IC50: 4.27 nM
Plasmodium yoelii [18]
  ED90: 1.98 mg/kg
Plasmodium cynomolgi [6]
  IC50: > 20000 nM
HepG2
  IC50: > 200000 nM
Plasmodium cynomolgi [8]
  IC50: > 20000 nM
Plasmodium cynomolgi [9]
  IC50: 30 nM
Plasmodium falciparum [10]
  IC50: 4.18 nM
[12]
  selectivity ratio at 96 h: > 60.6
Plasmodium falciparum [13]
  IC50: 599 nM
[14]
  CLH: 45.4 µL/min/mg
[17]
  Activity: Non-toxic

## O=c1c2ccc(OCc3cccc(OC(F)(F)F)c3)cc2[nH]c2cc(F)cc(Cl)c12
Plasmodium cynomolgi [1]
  IC50: 1170 nM
[2]
  Activity: Non-toxic
[3]
  selectivity ratio at 96 h: 1.4
[4]
  selectivity ratio at 96 h: 39.5
Hepatocyte
  CC50: 5930 nM
Plasmodium falciparum [5]
  IC50: 0.004 nM
Plasmodium cynomolgi [6]
  IC50: 3520 nM
HepG2
  IC50: > 200000 nM
Plasmodium cynomolgi [8]
  IC50: 4230 nM
Plasmodium cynomolgi [9]
  IC50: 150 nM
Plasmodium berghei
  Activity: Active; Out Of 5 - 5 Mouse Cured
Plasmodium falciparum [10]
  IC50: 0.03 nM
[11]
  selectivity ratio at 96 h: 1.68
[12]
  selectivity ratio at 96 h: 5.09
Plasmodium falciparum [13]
  IC50: 20.4 nM
[14]
  CLH: 33.5 µL/min/mg
[16]
  t1/2: > 1 h
[17]
  Activity: Non-toxic

## O=c1c2ccc(Oc3cccc(C(F)(F)F)c3)cc2[nH]c2cc(F)c(Cl)cc12
Plasmodium cynomolgi [1]
  IC50: 1390 nM
[4]
  selectivity ratio at 96 h: > 55.6
[23]
  CC50 at 48 h: > 20000 nM
Plasmodium falciparum [5]
  IC50: 3.87 nM
In vitro
  half-life at 1 h: > 1 h
Plasmodium cynomolgi [6]
  IC50: > 20000 nM
HepG2
  IC50: > 200000 nM
Plasmodium cynomolgi [8]
  IC50: > 20000 nM
Plasmodium cynomolgi [9]
  IC50: 360 nM
Plasmodium falciparum [10]
  IC50: 5.19 nM
[12]
  selectivity ratio at 96 h: > 14.4
Plasmodium falciparum [13]
  IC50: 59.4 nM
[14]
  CLH: 14.2 µL/min/mg

## O=c1c2ccc(Oc3cccc(OC(F)(F)F)c3)cc2[nH]c2cc(F)c(Cl)cc12
Plasmodium cynomolgi [1]
  IC50: 870 nM
[4]
  selectivity ratio at 96 h: > 167
[23]
  CC50 at 48 h: > 20000 nM
Plasmodium falciparum [5]
  IC50: 3.15 nM
In vitro
  half-life at 1 h: > 1 h
Plasmodium cynomolgi [6]
  IC50: > 20000 nM
HepG2
  IC50: > 200000 nM
Plasmodium cynomolgi [8]
  IC50: > 20000 nM
Plasmodium cynomolgi [9]
  IC50: 120 nM
Plasmodium falciparum [10]
  IC50: 3.57 nM
[12]
  selectivity ratio at 96 h: > 23
Plasmodium falciparum [13]
  IC50: 61.2 nM
[14]
  CLH: < 3.125 µL/min/mg
